Data: US20060079453A1, “Hla binding peptides and their uses” (priority 2002, published 2006)
pIC50: −log10 of the molar value. Where two headings read alike, the source gives them in different places. No end group written: not given here.

Key:
Assay in all cases: biochemical
Assay type in all cases: binding
HLA-DR DRB1*1302 (DR13) = HLA-DR DRB1*1302 (DR13) (Homo sapiens, UniProt P01903+P01911, A100E/A169T/K41T/L162R/M171V/P40S/Q125H/Q178H/Q39Y/Q99D/R42S/S66N/T262R/V115G/W38E/Y61H)
HLA-DR DRB1*0401 (DR4) = HLA-DR DRB1*0401 (DR4) (Homo sapiens, UniProt P01903+P01911, A100K/A169T/F76Y/I96L/K127E/L162R/M171V/N62H/P40V/Q125Y/R42H/S133A/S149N/S66Y/V115G/V209L/W38E)
HLA-DR DRB1*1101 (DR11) = HLA-DR DRB1*1101 (DR11) (Homo sapiens, UniProt P01903+P01911, A100R/A169T/A87E/I96F/K41T/L162R/M171V/P40S/Q125H/Q178H/Q39Y/Q99D/R42S/S66Y/T262R/V115G/W38E)
HLA-DR DRB1*1101 (DR11), sequence (P01903 26-254 limits assumed, other chains not shown): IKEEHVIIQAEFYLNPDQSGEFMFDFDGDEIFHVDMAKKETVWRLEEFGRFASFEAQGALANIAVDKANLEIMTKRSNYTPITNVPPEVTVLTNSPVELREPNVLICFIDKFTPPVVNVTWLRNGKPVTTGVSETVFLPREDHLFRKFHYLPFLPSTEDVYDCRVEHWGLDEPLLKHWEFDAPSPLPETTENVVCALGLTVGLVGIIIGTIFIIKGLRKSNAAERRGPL

HLA-DR DRB3*0101 (DR52) = HLA-DR DRB3*0101 (DR52) (Homo sapiens, UniProt P01903+P79483)
HLA-DR DRB1*0301 (DR3) = HLA-DR DRB1*0301 (DR3) (Homo sapiens, UniProt P01903+P01911, A100K/A102G/A103R/A169T/F55Y/I96L/K41T/L162R/M171V/P40S/Q125H/Q178H/Q39Y/R42S/S66N/T106N/T262R/W38E/Y61H)
HLA-DR DRB1*0301 (DR3), sequence (P01903 26-254 limits assumed, other chains not shown): as above

HLA-DR DRB4*0101 (DR53) = HLA-DR DRB4*0101 (DR53) (Homo sapiens, UniProt P01903+P13762, G164S)
HLA-DR DRB1*0701 (DR7) = HLA-DR DRB1*0701 (DR7) (Homo sapiens, UniProt P01903+P01911, A100R/A102G/A103Q/D57E/D86V/E43K/F76Y/K127E/L162R/M171V/P40G/Q125H/Q99D/R33Q/R42Y/R54Q/S133A/S66F/T210M/V115G/Y107V/Y59L/Y89S)
HLA-DR DRB1*0405 (DR4) = HLA-DR DRB1*0405 (DR4) (Homo sapiens, UniProt P01903+P01911, A100R/A169T/D86S/F76Y/I96L/K127E/L162R/M171V/N62H/P40V/Q125Y/R42H/S133A/S149N/S66Y/V115G/V209L/W38E)
HLA-DR DRB5*0101 (DR51) = HLA-DR DRB5*0101 (DR51) (Homo sapiens, UniProt P01903+Q30154)
HLA-DR DRB1*1501 (DR15) = HLA-DR DRB1*1501 (DR15) (Homo sapiens, UniProt P01903+P01911)
HLA-DR DRB1*0101 (DR1) = HLA-DR DRB1*0101 (DR1) (Homo sapiens, UniProt P01903+P01911, A100R/D57E/F55L/F60I/F76Y/I96L/L162R/M171V/P40L/Q125E/R42F/V115G/Y59C)
HLA-DR DRB1*0901 (DR9) = HLA-DR DRB1*0901 (DR9) (Homo sapiens, UniProt P01903+P01911, A100R/A103E/D57H/D86V/F55Y/F60I/F76Y/I96F/K127E/L162R/M171V/P40D/Q125H/Q99R/R33Q/R42F/S133A/S66N/T210M/V115G/W38K/Y107V/Y59G/Y89S); settings: DRB1 *0901
HLA-DR DRB1*0802 (DR8) = HLA-DR DRB1*0802 (DR8) (Homo sapiens, UniProt P01903+P01911, A100R/A103L/A169T/F76Y/H45Y/I96F/K41T/L162R/M171V/P40S/Q125H/Q178H/Q39Y/Q99D/R218S/R42G/S66Y/V115G/W38E)

HLA-DR DRB1*1302 (DR13), sequence (P01903 26-254 limits assumed, other chains not shown): as above

GAPLGGAARAAAHGV
pIC50 (HLA-DR DRB1*1302 (DR13)): < 4.63
pIC50 (HLA-DR DRB1*0401 (DR4)): 4.60
pIC50 (HLA-DR DRB1*1101 (DR11)): 5.44
pIC50 (HLA-DR DRB3*0101 (DR52)): < 4.29
pIC50 (HLA-DR DRB1*0301 (DR3)): 3.42
pIC50 (HLA-DR DRB4*0101 (DR53)): 4.38
pIC50 (HLA-DR DRB1*0701 (DR7)): 4.50
pIC50 (HLA-DR DRB1*0405 (DR4)): < 5.47
pIC50 (HLA-DR DRB5*0101 (DR51)): 4.37
pIC50 (HLA-DR DRB1*1501 (DR15)): < 5.06

GAPLGGLARALAHGV
pIC50 (HLA-DR DRB1*1302 (DR13)): 7.12
pIC50 (HLA-DR DRB1*0401 (DR4)): 4.86
pIC50 (HLA-DR DRB1*1101 (DR11)): 7.92
pIC50 (HLA-DR DRB3*0101 (DR52)): 3.91
pIC50 (HLA-DR DRB1*0301 (DR3)): 3.45
pIC50 (HLA-DR DRB4*0101 (DR53)): 5.40
pIC50 (HLA-DR DRB1*0101 (DR1)): 6.27
pIC50 (HLA-DR DRB1*0701 (DR7)): 7.18
pIC50 (HLA-DR DRB1*0405 (DR4)): < 4.88
pIC50 (HLA-DR DRB5*0101 (DR51)): 5.37

EMLQNIFAIFRQDSS
pIC50 (HLA-DR DRB1*1302 (DR13); DRBI *1302): 7.21
pIC50 (HLA-DR DRB1*0401 (DR4); DRB1 *0401): 6.16
pIC50 (HLA-DR DRB1*1101 (DR11); DRB1 *1101): 4.43
pIC50 (HLA-DR DRB3*0101 (DR52)): 6.14
pIC50 (HLA-DR DRB1*0901 (DR9)): 5.01
pIC50 (HLA-DR DRB1*0301 (DR3)): 5.02
pIC50 (HLA-DR DRB4*0101 (DR53); DRB4 *0101): 6.79
pIC50 (HLA-DR DRB1*0101 (DR1); DRB1 *0101): 6.40
pIC50 (HLA-DR DRB1*0701 (DR7); DRB1 *0701): 5.48
pIC50 (HLA-DR DRB1*0405 (DR4); DRB1 *0405): 6.34
pIC50 (HLA-DR DRB5*0101 (DR51); DRB5 *0101): 5.50
pIC50 (HLA-DR DRB1*1501 (DR15); DRBI *1501): 5.76

GAPLAGAARALAHGV
pIC50 (HLA-DR DRB1*1302 (DR13)): 5.14
pIC50 (HLA-DR DRB1*0401 (DR4)): 4.40
pIC50 (HLA-DR DRB1*1101 (DR11)): 8.02
pIC50 (HLA-DR DRB3*0101 (DR52)): < 4.15
pIC50 (HLA-DR DRB1*0301 (DR3)): 5.53
pIC50 (HLA-DR DRB4*0101 (DR53)): 5.53
pIC50 (HLA-DR DRB1*0701 (DR7)): 5.09
pIC50 (HLA-DR DRB1*0405 (DR4)): < 4.88
pIC50 (HLA-DR DRB5*0101 (DR51)): 5.11
pIC50 (HLA-DR DRB1*1501 (DR15)): 5.55

HIEFTPTRTDTYACRV
pIC50 (HLA-DR DRB1*0802 (DR8)): < 4.90
pIC50 (HLA-DR DRB1*0401 (DR4); DRB1 *0401): 4.52
pIC50 (HLA-DR DRB1*1101 (DR11); DRB1 *1101): ≤ 3.70
pIC50 (HLA-DR DRB3*0101 (DR52)): < 5.15
pIC50 (HLA-DR DRB1*0405 (DR4); DRB1 *0405): 5.00
pIC50 (HLA-DR DRB5*0101 (DR51); DRB5 *0101): ≤ 3.70

GAPLGGAARLLAHGV
pIC50 (HLA-DR DRB1*1302 (DR13)): 4.53
pIC50 (HLA-DR DRB1*0401 (DR4)): 4.82
pIC50 (HLA-DR DRB1*1101 (DR11)): 7.10
pIC50 (HLA-DR DRB3*0101 (DR52)): < 4.29
pIC50 (HLA-DR DRB1*0301 (DR3)): 4.64
pIC50 (HLA-DR DRB4*0101 (DR53)): 5.59
pIC50 (HLA-DR DRB1*0101 (DR1)): 6.40
pIC50 (HLA-DR DRB1*0701 (DR7)): 4.24
pIC50 (HLA-DR DRB1*0405 (DR4)): < 5.47
pIC50 (HLA-DR DRB1*1501 (DR15)): 6.20

YGAVVNLRKTVVNFP
pIC50 (HLA-DR DRB1*1302 (DR13); DRBI *1302): 4.95
pIC50 (HLA-DR DRB1*0401 (DR4); DRB1 *0401): 5.38
pIC50 (HLA-DR DRB1*1101 (DR11); DRB1 *1101): 7.05
pIC50 (HLA-DR DRB3*0101 (DR52)): 4.29
pIC50 (HLA-DR DRB1*0301 (DR3)): 3.82
pIC50 (HLA-DR DRB4*0101 (DR53); DRB4 *0101): 6.52
pIC50 (HLA-DR DRB1*0101 (DR1); DRB1 *0101): 4.87
pIC50 (HLA-DR DRB1*0701 (DR7); DRB1 *0701): 5.08
pIC50 (HLA-DR DRB1*0405 (DR4); DRB1 *0405): < 4.02
pIC50 (HLA-DR DRB5*0101 (DR51); DRB5 *0101): 7.44
pIC50 (HLA-DR DRB1*1501 (DR15); DRBI *1501): 6.33
